# Data reported in patent USRE36784E, “Chemoprotective isothiocyanates” (The Johns Hopkins University, priority 1997, dated 2000).
# Entries after “also recorded” stand apart in the source; their conditions may differ. Read-outs that look alike come from different tables or passages of the source.
# How the values were obtained:
# [1] = tested on: quinone reductase (QR) in Hepa 1c1c7 murine hepatoma cells; assay: Induction of QR (inducer potency, CD value) in Hepa 1c1c7 murine hepatoma cells; assay type: cell-based; conditions: for activity as inducers compared with sulforaphane and sulforaphene: in cell culture
# Protocol: (§1) Assay of Inducer Potency. Inducer activity was measured in Hepa 1c1c7 murine hepatoma cells grown in 96-well microtiter plates (Prochaska and Santamaria, Anal. Biochem. 169:328-336 (1988); Prochaska et al., Proc. Natl. Acad. Sciences USA 89:2394-2398 (1992)). QR activity (based on the formation of the blue-brown reduced tetrazolium dye) was measured with an optical microtiter plate scanner in cell lysates prepared in one plate, and the cell density was determined in the second plate by staining with crystal violet. Quantitative information on specific activity of QR, the inducer potency, and the cytotoxicity of the extract or compound tested is obtained by computer analysis of the absorbances. One unit of inducer activity is defined as the amount that when added to a single microtiter well doubled the QR specific activity. The CD value is the concentration of a compound required to double the quinone reductase specific activity in Hepa 1c1c7 murine hepatoma cells.
# Each of the analogs of sulforaphane was tested for the ability to induce QR in murine hepatoma cells by the assay described in Example 1.
# Analogs were synthesized and tested in the hepatoma cell assay described in Example 1.
# [2] = tested on: quinone reductase (QR) in Hepa 1c1c7 murine hepatoma cells; parameters: unit not given here; conditions: footnote 3, reported value; cited from earlier work
# [3] = tested on: phase I and phase II enzymes in mutants of Hepa 1c1c7 cells; conditions: Prochaska et al. 1988; cited from earlier work
# [4] = tested on: Hepa 1c1c7 murine hepatoma cells; conditions: Hepa 1c1c7 cells
# Protocol: as §1
# QR (quinone reductase) = assay: Induction of QR in mouse tissues after gavage; assay type: in vivo, mouse (female CD-1)
# Protocol: (§2) The compounds were administered to 6week-old female CD1 mice (4 or 5 mice
# (§3) per group) by gavage in indicated single daily doses in 0.1 ml of Emulpho
# (§4) EL 620P (GAF. Linden, NJ) for 5 days. Cytosols were prepared from the
# (§5) tissues 24 hr after the last treatment and assayed for enzyme activities
# (§6) (glutathione Stransferase was measured with 1chloro-2,4-dinitrobenzene).
# (§7) The specific activities (nmol · min^-1 · mg^-1
# (§8) ± SEM) of organs of vehicletreated #control mice were as follows.
# (§9) 54 ± 5.8: GST. 439 ± 34. Data are presented as mean ± SEM.
# [5] = tested on: glutathione S-transferase (GST); assay: Induction of glutathione S-transferase (GST) in mouse tissues after gavage; assay type: in vivo, mouse (female CD-1)
# Protocol: as §2, §3, §4, §5, §6, §7, §8, §9
# [6] = tested on: QR in BP^r cl mutant (defective in transport of the liganded Ah receptor to the nucleus); conditions: data not shown
# [7] = tested on: QR in cl mutant (which synthesizes inactive cytochrome P-450IA1); conditions: data not shown
# [8] = tested on: phase I and phase II enzymes in mutants of Hepa 1c1c7 cells; conditions: phase II selective = monofunctional
# [9] = Mus musculus, Hepa-1c1c7, read-out: CD, Table 3, QR induction, hepatoma cell assay of Example 1
# [10] = Mus musculus, Hepa-1c1c7, read-out: CD value, Table 1, QR induction, Hepa 1c1c7 cells
# [11] = Table 3, QR induction, hepatoma cell assay of Example 1, read-out: CD
# [12] = Mus musculus, Hepa-1c1c7, text, isolated (R)- and synthetic (R,S)-sulforaphane, read-out: CD values
# [13] = 15 μmol per mouse per day, gavage, 5 days, glandular stomach
# [14] = 15 μmol per mouse per day, gavage, 5 days, liver
# [15] = 15 μmol per mouse per day, gavage, 5 days, lung
# [16] = 15 μmol per mouse per day, gavage, 5 days, proximal small intestine
Compound,"EC (2-fold QR specific activity) [1, 9] [µM]",other results
COC(=O)C1CC2CC(N=C=S)C1C2 (stereo not shown) [GHP 1070],1.6,–
COc1ccc(CN=C=S)cc1 [GHP 1043],25,–
CSCCCCCN=C=S [GHP 1001],1.71,–
S=C=NC1CCCCC1 [cyclohexylisothiocyanate],–,CD value (reported) [2]: 14
COc1cccc(CN=C=S)c1 [GHP 1042],8.65,–
C[S+]([O-])CCCCCN=C=S (stereo not shown) [Alyssin],–,"EC (2-fold QR specific activity) [1, 10]: 0.95 µM; activity as inducers compared with sulforaphane and sulforaphene [1]: less active"
C[S+]([O-])CCCN=C=S (stereo not shown) [Iberin],–,"EC (2-fold QR specific activity) [1, 10]: 2.4 µM; activity as inducers compared with sulforaphane and sulforaphene [1]: less active"
S=C=NCc1ccccc1 [Benzylisothiocyanate],–,inducer type [3]: monofunctional inducer
CSCCCN=C=S [GHP 1008],3.52,–
CSCCc1ccccc1N=C=S [GHP 1023],100,–
C[S+]([O-])CCCCN=C=S (stereo not shown) [GHP 1005],–,"EC (2-fold QR specific activity) ([1]; Mus musculus, Hepa-1c1c7, Table 3, QR induction, hepatoma cell assay of Example 1, read-out: CD): 0.2 µM"
S=C=NCc1ccccc1Br [GHP 1049],12.5,–
COc1ccccc1N=C=S [GHP 1031],100,–
"CS(=O)(=O)[C@@H]1CCC[C@H](CN=C=S)C1 (relative stereo) [GHP 1080, cis- or trans-3-(methylsulfonyl)cyclohexylmethylisothiocyanate]",0.41,–
S=C=NC1CCc2ccccc21 (stereo not shown) [GHP 1052],38.9,–
C[S+]([O-])CCCCCN=C=S (stereo not shown) [GHP 1002],0.94,–
"CS(=O)(=O)CCCCCN=C=S [GHP 1003, 1-isothiocyanato-5-methylsulfonylpentane]",0.98,"EC (2-fold QR specific activity) [1, 10]: 0.98 µM"
COc1ccccc1CN=C=S [GHP 1041],2.41,–
"CC(O)CCCCN=C=S (stereo not shown) [GHP 1106, 6-isothiocyanato-2-hexanol]",0.35,–
Fc1ccccc1CN=C=S [GHP 1047],13.1,–
CS(=O)(=O)CCCCN=C=S [GHP 1007],0.82,–

Compound,"EC (2-fold QR specific activity) [1, 9] [µM]",other results
CSCCCN=C=S [Iberverin],–,"EC (2-fold QR specific activity) [1, 10]: 3.5 µM; activity as inducers compared with sulforaphane and sulforaphene [1]: less active"
CS(=O)(=O)CCCN=C=S [GHP 1010],1.32,–
N#CC1CC2CC1CC2N=C=S (stereo not shown) [GHP 1071],0.59,–
CS(=O)(=O)CCCN=C=S [Cheirolin],–,"EC (2-fold QR specific activity) [1, 10]: 1.3 µM; activity as inducers compared with sulforaphane and sulforaphene [1]: less active"
"CS(=O)(=O)C1CC2CC(N=C=S)C1C2 (stereo not drawn) [GHP 1068, exo-2-isothiocyanato-6-methylsulfonylnorbornane]",0.15,–
CCOC(=O)CN=C=S [GHP 1061],8.2,–
"CC(=O)C1CC2CC1CC2N=C=S (stereo not drawn) [GHP 1067, exo-2-acetyl-5-isothiocyanatonorbornane]",–,"EC (2-fold QR specific activity) [1, 11]: 0.43 µM"
"C[S+]([O-])CCCCN=C=S (racemic) [(R,S)-sulforaphane]",–,"EC (2-fold QR specific activity) [1, 12]: 0.2 to 0.4 µM; cytotoxicity in words [4]: relatively noncytotoxic"
S=C=NCc1ccccc1Cl [GHP 1048],14.1,–
"CC(O)C1CC2CC1CC2N=C=S (stereo not drawn) [GHP 1075, exo-2-(1'-hydroxyethyl)-5-isothiocyanatonorbornane]",0.45,–
C[S+]([O-])CCCN=C=S (stereo not shown) [GHP 1009],2.36,–
CS(=O)(=O)c1ccc(CN=C=S)cc1 [GHP 1062],1.2,–
Cc1ccccc1CN=C=S [GHP 1050],3.7,–
CCCCC(=O)CCCCN=C=S [GHP 1081],2,–
O=C(O)CCCCN=C=S [GHP 1103],2.19,–
COC(=O)CCCCN=C=S [GHP 1102],2.81,–
"CC(=O)C1CC2CC(N=C=S)C1C2 (stereo not drawn) [GHP 1066, exo-2-acetyl-6-isothiocyanatonorbornane]",0.26,–
C[S+]([O-])CCCCN=C=S (racemic) [Sulforaphane],–,"EC (2-fold QR specific activity) ([1]; Mus musculus, Hepa-1c1c7, Table 1, QR induction, Hepa 1c1c7 cells, read-out: CD value): 0.4 to 0.8 µM; relative potency as inducers of QR ([1]; comparison in words, Table 1): most potent monofunctional inducer that has been identified; also recorded: equipotent; rise in QR activity in lung (QR (quinone reductase); 15 μmol daily for 5 days, lung): to a lesser degree; Ratio of specific activities (treated/control), QR, Forestomach (QR (quinone reductase); 15 μmol per mouse per day, gavage, 5 days, forestomach, *P < 0.05): 1.70 ± 0.18; Ratio of specific activities (treated/control), QR, Glandular stomach (QR (quinone reductase); [13]): 2.35 ± 0.06; Ratio of specific activities (treated/control), QR, Liver (QR (quinone reductase); [14]): 2.45 ± 0.07; Ratio of specific activities (treated/control), QR, Lung (QR (quinone reductase); [15]): 1.37 ± 0.14; Ratio of specific activities (treated/control), QR, Proximal small intestine (QR (quinone reductase); [16]): 2.34 ± 0.19; rise in glutathione transferase activity in lung ([5]; 15 μmol daily for 5 days, lung): to a lesser degree; Ratio of specific activities (treated/control), GST, Forestomach ([5]; 15 μmol per mouse per day, gavage, 5 days, forestomach): 1.98 ± 0.08; Ratio of specific activities (treated/control), GST, Glandular stomach [5, 13]: 2.97; Ratio of specific activities (treated/control), GST, Liver [5, 14]: 1.86 ± 0.08; Ratio of specific activities (treated/control), GST, Lung [5, 15]: 1.17; Ratio of specific activities (treated/control), GST, Proximal small intestine [5, 16]: 2.13; induction of QR in mutant cells [6]: normal; induction of QR in mutant cells [7]: normal; inducer type [8]: monofunctional inducer"
CN(C)c1ccccc1CN=C=S [GHP 1045],12.5,–
CCc1ccccc1CN=C=S [GHP 1053],12.5,–
"CS(=O)(=O)[C@H]1CC[C@@H](N=C=S)CC1 [GHP 1073, cis-1-isothiocyanate-4-methylsulfonylcyclohexane]",0.44,–

Compound,"EC (2-fold QR specific activity) [1, 9] [µM]",other results
O=[N+]([O-])C1CC2CC1CC2N=C=S (stereo not shown) [GHP 1072],1.05,–
N#CCCCCN=C=S [GHP 1101],1.97,–
COC(=O)C1CC2CC1CC2N=C=S (stereo not shown) [GHP 1069],0.68,–
CSc1ccccc1CN=C=S [GHP 1046],6.8,–
C[S@@+]([O-])CCCCN=C=S [(R)-sulforaphane],–,"inducer activity ([1]; 8.9 mg isolated after HPLC/TLC/HPLC): 558,000 inducer units; EC (2-fold QR specific activity) [1, 12]: 0.2 to 0.4 µM; cytotoxicity in words [4]: relatively noncytotoxic"
CC(=O)C1CC2CC1CC2N=C=S (stereo not shown) [GHP 1065],0.77,–
CS(=O)(=O)C1CC2CC1CC2N=C=S (stereo not shown) [GHP 1063],1.02,–
CCOc1ccccc1CN=C=S [GHP 1051],2.5,–
"CP(C)(=O)CCCCN=C=S [GHP 1078, 1-isothiocyanato-4-dimethylphosphonyl-butane]",0.43,–
OC1CC2CC1CC2N=C=S (stereo not shown) [GHP 1077],1.85,–
"CC(=O)CCCCN=C=S [GHP 1105, 6-isothiocyanato-2-hexanone]",0.23,–
CS(=O)(=O)C1CC2CC1CC2N=C=S (stereo not shown) [GHP 1064],–,"EC (2-fold QR specific activity) [1, 11]: 0.66 µM"
S=C=Nc1ccccc1Cl [GHP 1032],100,–
CSCc1ccccc1CN=C=S [GHP 1021],4.3,–
CSc1ccccc1CCN=C=S [GHP 1022],7.4,–
CSCCCCCN=C=S [Berteroin],–,"EC (2-fold QR specific activity) [1, 10]: 1.7 µM; activity as inducers compared with sulforaphane and sulforaphene [1]: less active"
COc1cccc(OC)c1CN=C=S [GHP 1044],5.8,–
CCOC(=O)C(CCS(C)(=O)=O)N=C=S (stereo not shown) [GHP 1074],2.64,–
S=C=NCCCCCSSCCCCCN=C=S [GHP 1004],0.83,–
"CS(=O)(=O)[C@@H]1CCC[C@@H](CN=C=S)C1 (relative stereo) [GHP 1079, cis- or trans-3-(methylsulfonyl)cyclohexylmethylisothiocyanate]",0.48,–
NC(=O)c1ccc(N=C=S)cc1 [GHP 1033],100,–
